One data set concerns 2LMP xenografts. Briefly: Analysis of apoptosis in xenografts (TUNEL). In kind it is in vivo, athymic nude mice. The conditions noted are these: day 14. On the procedure:
One group of mice was untreated. The xenografts were dissected for the study of apoptosis on day 14 after tumor cell injection. The reason for the substantial reduction in treatment intensity compared to our standard treatment protocol was to allow adequate tumor tissue for analysis on day 14. Tunel assay for apoptosis in tumor xenografts was performed as follows. Five-micron paraffin sections of tissue were mounted on Superfrost/Plus slides and heated at 58° C. for 1 h. Tissue sections were deparaffinized in three changes of xylene and rehydrated with one change of absolute ethanol, 95% ethanol, and 70% ethanol, each in 5-min increments. Then, the sections were placed in Tris-buffered saline (0.5M Tris base, 0.15 M NaCl, 0.0002% Triton X-100™, pH 7.6). Apoptotic nuclei were detected using an Apop Tag Peroxidase kit (Intergen, Purchase, N.Y.). Proteinase K (20 μg/ml in distilled deionized H2O) was added to the tissue specimens and incubated at room temperature for 15 min. Endogenous peroxidases were quenched with an aqueous solution of 3% hydrogen peroxide for 5 min. Sections were treated with an equilibration buffer for 30 min and then incubated with the TdT/enzyme (diluted in labeling reaction mix) for 1 h at 37° C. using parafilm covers. During this incubation, the TdT enzyme binds the 3′-OH ends of DNA fragments and catalyzes the addition of digoxigenin-labeled and unlabeled deoxynucleotides. Negative controls were incubated with distilled H2O (diluted in labeling reaction mix) instead of the TdT enzyme. A stop buffer was added for 10 min at room temperature to terminate the labeling reaction. An anti-digoxigenin conjugate was added to each slide for 30 min. The chromagen 3,3′ DAB was used to visualize the labeled 3′ OH end of DNA fragments. The slides were then rinsed in deionized water and lightly counterstained with hematoxylin, dehydrated using graded alcohols and xylene and coverlsipped using Permount. Approximately 10 random fields were evaluated for percentage of Tunel stained and percentage of intensely stained apoptotic bodies throughout the tissue.

The next data set deals with PC-3 cells. Briefly: Combination study of TRA-8 with Paclitaxel (XTT). It counts as cell-based, human. The conditions noted are these: Paclitaxel alone, concentrations of up to 200 nM. As to the method:
Human prostate cancer cell line PC-3 is obtained from American Tissue Culture Collection (ATCC) and maintained in F-12K Nutrient Mixture (21127-022, Gibco BRL) containing 10% fetal bovine serum (FBS, Hyclone), 1% L-Glutamine-200 mM (25030-149, Gibco BRL) and 0.5% Penicillin Streptomycin Solution (P-7539, Sigma). RPMI1640 medium (MED-008, IWAKI) supplemented with 10% FBS and 0.5% Penicillin Streptomycin Solution is used in the following experiment. Exponentially growing PC-3 cells are collected by trypsinization and washed twice with fresh medium. The cells are then counted, resuspended in fresh medium at a density of 5×10^4 cells/ml and distributed in triplicate into flat-bottomed 96 well plates (3598, Corning-Coster) in a total volume of 100 μl/well one day before the start of the experiment. A representative anti-cancer drug, Paclitaxel (169-18611, Wako) dissolved in dimethylsulfoxide (10 mg/ml) is diluted in fresh medium and then added to the 96-well plates containing the cells at 50 μl/well. The final concentrations of dimethylsulfoxide are less than 0.1%. […] After incubation for a further 24 hr, 50 μl of Minimum Essential Medium (11095-098, Gibco BRL) containing 1 mg/ml of XTT and […] of PMS is added to the wells and the plates are incubated for 6 hr. OD450 is then measured by SPECTRA MAX 250 (Molecular Devices) and the cell viability is calculated as follows.

Data set [1] has as its system 2LMP human breast cancer xenografts. Briefly: TRA-8 therapy alone or with chemotherapy or radiation, breast cancer xenografts. In kind it is in vivo, athymic nude mice. The conditions noted are these: aggregate of 6 experiments. On the procedure:
Athymic nude mice were injected s.c. with 3×10^7 2LMP cells. […] The growth of tumors was monitored over time. […] Tumor size and regression rates were determined.
Data from 6 independent experiments were analyzed by individual experiment. Treatment combinations were compared with respect to in vivo anti-tumor efficacy, i.e., inhibition of tumor growth, which was measured as three endpoints; extension of tumor doubling times, percentage of tumor regressions, and growth rates over time. The actual number of days at which the tumor doubled in surface area (product of two diameters) relative to baseline on day 7 after tumor cell injection was used in the doubling time analysis. The nonparametric Kruskal-Wallis test was used for median tumor doubling time comparisons between treatments. Fisher's exact test was used to compare the proportions of tumor regressions and relapse-free regressions across treatment groups. To determine if any combination therapy produced significant synergistic inhibition of tumor growth, i.e., more than additive, the growth curves from the serial area measurements were compared using a linear mixed model approach over the first 3 weeks after start of therapy (Lindsey, J. K. Models for Repeated Measurements, pp. 100-142, Oxford, 1993). To test for synergistic effects of the combination therapies, an interaction term was included in the model. If the interaction term was significant and the effect was inhibition of growth at a rate greater than additive then the interaction was considered synergistic.
A total of 166 animals, 10 treatment groups, and 6 independent experiments were included in the aggregate analysis. Treatment combinations were compared with respect to in vivo anti-tumor efficacy. The median tumor doubling times were analyzed using the Kruskal-Wallis test and Fisher's exact test was used to compare the proportions of tumor regressions and relapse-free regressions across treatment groups.

Compound `CC(=O)O[C@H]1C(=O)[C@@]2(C)[C@H]([C@H](OC(=O)c3ccccc3)[C@]3(O)C[C@H](OC(=O)[C@H](O)[C@@H](NC(=O)c4ccccc4)c4ccccc4)C(C)=C1C3(C)C)[C@]1(OC(C)=O)CO[C@@H]1C[C@@H]2O` [Paclitaxel] showed a TUNEL stained cells with 2LMP xenografts (100 μg TRA-8 days 7, 10, adriamycin 3 mg/kg or paclitaxel 10 mg/kg days 8, 11, untreated 4%) of 7%. In addition, in the data set on 2LMP xenografts (same regimen, untreated 1%), the intensely stained cells is on record as 2%. Moreover, the cell viability remaining result in the data set on PC-3 cells is listed as “more than 40%”. In data set [1] (number of animals (%)), the “Complete Regressions No relapse (%)” value is 0 and the “Complete Regressions Total (%)” value worked out at 0. Further, in data set [1] (relative to day 7), the “Tumor Doubling Time (mean)” value came to 25 days and the “Tumor Doubling Time (median)” value is 20 days.

For the origin of these results see US7704502B2, “Combinations of antibodies selective for DR5 and other therapeutic agents” (The UAB Research Foundation, priority 2000, dated 2010).
